Assay results reported in US20220233662A1, “NOVEL PEPTIDE” (University College Cardiff Consultants Ltd., priority 2020, published 2022).

Key:
Format in all cases: cell-based, human
[1] = system: T-cell clone CR24; experiment: HLA A2 tetramer staining of CR24
[2] = system: T-cell clone CR24; experiment: Activation assay of clone CR24 with exogenous peptide (peptide titration, MIP-1β ELISA)
[3] = system: CD8+ T-cells from HLA A2+ healthy donors; experiment: Priming of CD8+ T-cells from HLA A2+ healthy donors with WT and APL peptides, tetramer staining; conditions: HLA A2+ healthy donors (n=3), compared to priming with WT peptides
Description: The peptides are sequence […] to the wild-type peptide and termed altered peptide ligands. […] (FIG. 9B) To test the APLs for super-agonist properties each of the WT and APL peptides were used to prime CD8+ T-cells from HLA A2+ healthy donors. The magnitude of the response to each of the peptides was assessed by staining the T-cells with tetramers for HLA A2-[…]
To generate T-cell peptide lines, CD8 T-cells were purified from the PBMCs of HLA A2+ donors using CD8 microbeads according to the manufacturer's instructions (Miltenyi Biotech, Bergisch Gladbach, Germany). Purified CD8 cells (3×10^6) were co-incubated with autologous CD8neg cells (6-8×10^6) in 24 well plates in 2 mL of T-cell media, but with no IL-15. 25 μM of each peptide was used. The cultures had 50% of the media changed thrice weekly. Tetramer staining was performed as above, using 500,000 cells per tube. […] 50,000 T-cells and 15,000 cancer cells were used per well. Incubation was performed for 48 h, and the assay developed according to the manufacturer's instructions (Mabtech, Nacka Strand, Sweden).
(§1) CPL assay of CR24 was performed as described above. Candidate peptide agonists were designed using the CR24 CPL and an online algorithm (http://wsbc.warwick.ac.uk/wsbcToolsWebpage/user_cases.php). Priming of CD8 T-cells from healthy donors, tetramer staining, and chromium release cytotoxicity assays were performed as described above.

[4] = system: CD8 T-cells from RCC, CLL and AML patients; experiment: Priming of CD8 T-cells from RCC, CLL and AML patients for 28 days, TAPI-0 assay or tetramer staining
Excerpt: (§2) (FIG. 14A) CD8 T-cells from a renal cell carcinoma (RCC) and chronic lymphocytic leukaemia (CLL) patient were left unprimed or primed with […] peptide for 28 days.

[5] = system: autologous melanoma cells; experiment: Chromium release cytotoxicity assay of peptide-primed T-cell lines with autologous melanoma; conditions: compared to WT Melan A peptide primed T-cells
Description: as §1

[6] = system: autologous cancer cells (RCC, CLL); experiment: Killing assay of peptide-primed CD8 T-cells with autologous cancer cells
Excerpt: as §2

| Sequence | staining of CR24 with HLA A2 tetramer containing the peptide [1] | recognition by CR24 as exogenous peptide [2] | CR24 response to individual peptide ([2]; peptide at 10^-6 M) | CR24 response to individual peptide ([2]; peptide at 10^-8 M) | priming of Melan A, BST2 and IMP2 tetramer-positive T-cells [3] | proportion of IMP-2 specific T-cells (IMP-2 tetramer) ([4]; AML patient and two CLL patients, primed 28 days, compared to unprimed) | MTSAIGILPV specific T-cells after priming ([4]; RCC patient (TAPI-0 assay), CLL patient (tetramer), primed 28 days) | priming of T-cells in RCC, CLL and AML patients ([4]; renal cell carcinoma, chronic lymphocytic leukaemia and acute myeloid leukaemia patients) | lysis of autologous melanoma cells by peptide-primed T-cells [5] | killing of CLL cells by primed T-cells ([6]; CLL patient 3, compared to IMP-2 primed CD8s) | killing of autologous cancer cells by primed CD8s ([6]; RCC and CLL patient, compared to unprimed T-cells) | priming of Melan A, BST2 and IMP2 tetramer-positive T-cells ([3]; listed as MTSAIGVLVP) |
| --- | --- | --- | --- | --- | --- | --- | --- | --- | --- | --- | --- | --- |
| NLSALGIFST (listed as Homo sapiens) [wild-type peptide from IMP2 (residues 367-376)] | stained | recognised | responded | responses dropped |  |  |  |  |  |  |  |  |
| LLLGIGILVL (listed as Homo sapiens) [wild-type peptide from BST2 (residues 22-31)] | stained | recognised | responded | responses dropped |  |  |  |  |  |  |  |  |
| ITSAIGILPV (listed as Homo sapiens) [APL 2, altered peptide ligand, candidate super-agonist designed from CR24 CPL data] |  |  |  |  | exhibiting effect across each donor |  |  |  |  |  |  |  |
| MTSAIGILPV (listed as Homo sapiens) [APL 5, altered peptide ligand, super-agonist peptide for multi-pronged T-cells] |  |  |  |  | most effective super-agonist | induced a greater proportion | presence | superior at priming | superior lysis | killed more CLL cells | killed more autologous cancer cells | most effective of the candidate super-agonists |
